Legend:
Assay in all cases: Bliss excess, mean over the matrix (fraction); higher = more synergy
[1] = system: JHH-6 (Hepatocellular Carcinoma)
Procedure, shortened: (§1)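 After 24 hours at 37°C and 5% CO2 in 1536-well plates, cells in DMEM/F12 or RPMI plus 10% FBS received two-drug dose matrices for 72 hours. Viability came from CellTiter-Glo 2.0 luminescence and was scaled as inhibition, anchored at 0 by vehicle wells and at 1 by blank wells. Combination Emax is taken as the second-highest inhibition in the matrix, and Bliss excess as the observed combination effect less EA + EB − EA·EB, with EA and EB the single-agent effects.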

[2] = system: NOMO-1 (Acute Myeloid Leukemia)
Procedure, shortened: as §1

MCF7 (Breast Carcinoma) = system: MCF7 (Breast Carcinoma)
Procedure, shortened: as §1

HuO9 (Osteosarcoma) = system: HuO9 (Osteosarcoma)
Procedure, shortened: as §1

[3] = system: ETK-1 (Biliary Tract Carcinoma)
Procedure, shortened: as §1

SK-MEL-1 (Melanoma) = system: SK-MEL-1 (Melanoma)
Procedure, shortened: as §1

[4] = system: MES-SA (Other Solid Carcinomas)
Procedure, shortened: as §1

[5] = system: EKVX (Non-Small Cell Lung Carcinoma)
Procedure, shortened: as §1

[6] = system: EFM-192A (Breast Carcinoma)
Procedure, shortened: as §1

[7] = system: HOP-92 (Non-Small Cell Lung Carcinoma)
Procedure, shortened: as §1

[8] = system: PA-TU-8902 (Pancreatic Carcinoma)
Procedure, shortened: as §1

MSTO-211H (Mesothelioma) = system: MSTO-211H (Mesothelioma)
Procedure, shortened: as §1

[9] = system: SK-LMS-1 (Other Solid Carcinomas)
Procedure, shortened: as §1

[10] = system: NCI-H1688 (Small Cell Lung Carcinoma)
Procedure, shortened: as §1

[11] = system: KG-1 (Acute Myeloid Leukemia)
Procedure, shortened: as §1

CS1 (Chondrosarcoma) = system: CS1 (Chondrosarcoma)
Procedure, shortened: as §1

HCC38 (Breast Carcinoma) = system: HCC38 (Breast Carcinoma)
Procedure, shortened: as §1

[12] = system: D-283MED (Other Solid Carcinomas)
Procedure, shortened: as §1

[13] = system: MEG-01 (Chronic Myelogenous Leukemia)
Procedure, shortened: as §1

[14] = system: SNG-M (Endometrial Carcinoma)
Procedure, shortened: as §1

Row | Compound | Bliss excess [1] | Bliss excess [2] | Bliss excess (MCF7 (Breast Carcinoma)) | Bliss excess (HuO9 (Osteosarcoma)) | Bliss excess [3] | Bliss excess (SK-MEL-1 (Melanoma)) | Bliss excess [4] | Bliss excess [5] | Bliss excess [6] | Bliss excess [7] | Bliss excess [8] | Bliss excess (MSTO-211H (Mesothelioma)) | Bliss excess [9] | Bliss excess [10] | Bliss excess [11] | Bliss excess (CS1 (Chondrosarcoma)) | Bliss excess (HCC38 (Breast Carcinoma)) | Bliss excess [12] | Bliss excess [13] | Bliss excess [14]
1 | Cc1c2c(nn1C)CSCc1cc(n(C)n1)CSc1cc(c3ccccc3c1)OCCCc1c(C(=O)O)n(C)c3c-2c(Cl)ccc13 [AZD5991] + C=CCn1c(=O)c2cnc(Nc3ccc(N4CCN(C)CC4)cc3)nc2n1-c1cccc(C(C)(C)O)n1 [AZD1775] (first compound max 1 µM, partner max 1 µM) | -0.0647 | -0.01 | -0.0622 | -0.0292 | 0.0386 | -0.0137 | 0.0402 | 0.0335 | -0.0297 | -0.012 | -0.0326 | 0.0284 | -0.0388 | -0.0502 | 0.0391 | -0.0118 | 0.0396 | -0.0583 | -0.0401 | -0.0456
2 | Cc1cc2ncnn2cc1Nc1ncc2c(n1)n(C1CCOCC1)c(=O)n2C [AZD7648] + O=C(c1cc(Cc2n[nH]c(=O)c3ccccc23)ccc1F)N1CCN(C(=O)C2CC2)CC1 [Olaparib] (first compound max 10 µM, 7x7, partner max 10 µM) | -0.0516 | -0.0359 | -0.0625 | 0.0105 | 0.0223 | 0.0039 | 0.06 | -0.0563 | -0.0533 | -0.0144 | -0.0237 | -0.0143 | -0.0295 | -0.02 | -0.0312 | -0.0193 | -0.0481 | -0.0398 | -0.0086 | -0.0471
3 | CN(C)CCCOc1ccc(-c2ccc3ncc4c(c3c2)n(C2CCOCC2)c(=O)n4C)cn1 [AZD0156] + CCN(CCO)CCCOc1ccc2c(Nc3cc(CC(=O)Nc4cccc(F)c4)[nH]n3)ncnc2c1 [AZD2811] (first compound max 1 µM, 7x7, partner max 1 µM) | -0.0083 | 0.0759 | -0.0114 | -0.009 | -0.0087 | -0.0356 | 0.0836 | -0.0473 | -0.0243 | 0.0242 | -0.0223 | -0.0098 | 0.0032 | 0.0018 | -0.0001 | -0.0074 | -0.0451 | 0.02 | -0.0347 | -0.0218
4 | CC1(C)CCC(CN2CCN(c3ccc(C(=O)NS(=O)(=O)c4ccc(NCC5CCOCC5)c([N+](=O)[O-])c4)c(Oc4cnc5[nH]ccc5c4)c3)CC2)=C(c2ccc(Cl)cc2)C1 [Venetoclax] + C[C@@H]1COCCN1C2=NC(=NC(=C2)C3(CC3)[S@](=N)(=O)C)C4=C5C=CNC5=NC=C4 [AZD6738] (first compound max 1 µM, 7x7, partner max 10 µM) | -0.03 | 0.015 | 0.0003 | 0.0275 | -0.0562 | -0.027 | 0.0105 | -0.054 | -0.0377 | -0.0427 | -0.0236 | -0.0344 | -0.0884 | 0.0294 | 0.075 | 0.0039 | -0.0264 | -0.0345 | -0.0256 | -0.0296
5 | COc1cccc(OCCCN)c1-c1cc(Nc2cnc(C#N)cn2)n[nH]1 [Prexasertib] + C[C@@H]1COCCN1C2=NC(=NC(=C2)C3(CC3)[S@](=N)(=O)C)C4=C5C=CNC5=NC=C4 [AZD6738] (first compound max 1 µM, 7x7, partner max 10 µM) | 0.0207 | -0.0147 | 0.017 | -0.0638 | -0.0028 | -0.015 | -0.0765 | -0.0018 | 0.0131 | -0.0039 | 0.0229 | -0.0197 | -0.029 | 0.0117 | -0.0531 | -0.0111 | -0.0029 | 0.0042 | -0.0542 | 0.0329
6 | CC(=O)Nc1cccc(-n2c(=O)n(C3CC3)c(=O)c3c(Nc4ccc(I)cc4F)n(C)c(=O)c(C)c32)c1 [Trametinib] + Cc1nc(-c2cn3c(n2)-c2ccc(-c4cnn(C(C)(C)C(N)=O)c4)cc2OCC3)n(C(C)C)n1 [Taselisib] (first compound max 1 µM, 7x7, partner max 10 µM) | 0.152 | 0.0306 | 0.0979 | 0.0587 | 0.134 | 0.0238 | 0.062 | 0.136 | 0.0042 | 0.14 | 0.108 | 0.122 | 0.0854 | 0.127 | 0.131 | 0.0483 | 0.0219 | 0.119 | 0.0324 | 0.102
7 | CC1(C)CCC(CN2CCN(c3ccc(C(=O)NS(=O)(=O)c4ccc(NCC5CCOCC5)c([N+](=O)[O-])c4)c(Oc4cnc5[nH]ccc5c4)c3)CC2)=C(c2ccc(Cl)cc2)C1 [Venetoclax] + C1CN(CCC1(C(=O)N[C@@H](CCO)C2=CC=C(C=C2)Cl)N)C3=NC=NC4=C3C=CN4 [Capivasertib] (first compound max 1 µM, 7x7, partner max 3 µM) | -0.0791 | -0.0342 | 0.0076 | -0.0237 | -0.0619 | -0.0561 | -0.0597 | -0.0306 | -0.046 | -0.0245 | -0.0752 | -0.0496 | -0.0485 | -0.0065 | 0.041 | -0.072 | -0.0177 | -0.0218 | -0.0349 | 0.0086
8 | CC1(C)CCC(CN2CCN(c3ccc(C(=O)NS(=O)(=O)c4ccc(NCC5CCOCC5)c([N+](=O)[O-])c4)c(Oc4cnc5[nH]ccc5c4)c3)CC2)=C(c2ccc(Cl)cc2)C1 [Venetoclax] + C=CCn1c(=O)c2cnc(Nc3ccc(N4CCN(C)CC4)cc3)nc2n1-c1cccc(C(C)(C)O)n1 [AZD1775] (first compound max 1 µM, partner max 1 µM) | -0.0348 | 0.0689 | -0.0227 | 0.0227 | -0.0661 | -0.0539 | -0.0606 | -0.075 | -0.0253 | 0.0046 | -0.0622 | -0.0183 | -0.0306 | -0.0067 | 0.201 | 0.0589 | 0.0136 | 0.0257 | 0.0146 | -0.0002
9 | Cc1c2c(nn1C)CSCc1cc(n(C)n1)CSc1cc(c3ccccc3c1)OCCCc1c(C(=O)O)n(C)c3c-2c(Cl)ccc13 [AZD5991] + CN(C)CCCOc1ccc(-c2ccc3ncc4c(c3c2)n(C2CCOCC2)c(=O)n4C)cn1 [AZD0156] (first compound max 1 µM, 7x7, partner max 1 µM) | -0.0079 | -0.0177 | -0.0063 | -0.0171 | -0.0503 | -0.0322 | 0.017 | -0.0139 | -0.0427 | -0.044 | 0.0116 | -0.0129 | -0.0645 | -0.0098 | 0.0115 | 0.0158 | -0.0182 | 0.0096 | -0.007 | 0.01
10 | CN(CCO)CC[C@H](CSc1ccccc1)Nc1ccc(S(=O)(=O)NC(=O)c2ccc(N3CCC([C@@H](O)c4ccccc4-c4ccc(Cl)cc4)CC3)cc2)cc1S(=O)(=O)C(F)(F)F [AZD4320] + C1CN(CCC1(C(=O)N[C@@H](CCO)C2=CC=C(C=C2)Cl)N)C3=NC=NC4=C3C=CN4 [Capivasertib] (first compound max 1 µM, 7x7, partner max 3 µM) | -0.0437 | -0.0012 | -0.0383 | 0.0355 | -0.0305 | -0.0281 | -0.0088 | -0.0309 | -0.0269 | -0.038 | -0.0448 | -0.0162 | -0.0225 | -0.0173 | 0.0226 | -0.022 | 0.0057 | 0.0139 | -0.0223 | -0.054
11 | Cc1c2c(nn1C)CSCc1cc(n(C)n1)CSc1cc(c3ccccc3c1)OCCCc1c(C(=O)O)n(C)c3c-2c(Cl)ccc13 [AZD5991] + Cn1cnc2c(F)c(Nc3ccc(Br)cc3Cl)c(C(=O)NOCCO)cc21 [Selumetinib] (first compound max 1 µM, 7x7, partner max 3 µM) | -0.0116 | 0.135 | -0.0435 | -0.0386 | -0.005 | -0.01 | -0.0247 | -0.0474 | -0.0116 | -0.0332 | -0.0466 | -0.006 | -0.0257 | 0.0484 | 0.0316 | -0.0136 | -0.0386 | -0.0265 | 0.139 | -0.0258
12 | CN(C)CCCOc1ccc(-c2ccc3ncc4c(c3c2)n(C2CCOCC2)c(=O)n4C)cn1 [AZD0156] + C[C@@H]1COCCN1C2=NC(=NC(=C2)C3(CC3)[S@](=N)(=O)C)C4=C5C=CNC5=NC=C4 [AZD6738] (first compound max 1 µM, 7x7, partner max 10 µM) | -0.01 | 0.0095 | 0.0578 | 0.0236 | 0.0294 | -0.0216 | 0.0509 | -0.0388 | 0.0073 | -0.0145 | -0.0007 | 0.0418 | 0.0122 | -0.0004 | 0.128 | 0.0088 | -0.0689 | 0.0357 | 0.0001 | 0.0138
13 | CN(CCO)CC[C@H](CSc1ccccc1)Nc1ccc(S(=O)(=O)NC(=O)c2ccc(N3CCC([C@@H](O)c4ccccc4-c4ccc(Cl)cc4)CC3)cc2)cc1S(=O)(=O)C(F)(F)F [AZD4320] + Cn1cnc2c(F)c(Nc3ccc(Br)cc3Cl)c(C(=O)NOCCO)cc21 [Selumetinib] (first compound max 1 µM, 7x7, partner max 3 µM) | 0.0455 | 0.143 | 0.0377 | 0.041 | 0.0502 | 0.0228 | 0.0404 | 0.0109 |  | -0.0341 | 0.0696 | 0.0146 | 0.0293 | 0.0285 | 0.0452 | -0.0054 | -0.0375 | 0.0172 | 0.0005 | 0.0038
14 | Cc1c2c(nn1C)CSCc1cc(n(C)n1)CSc1cc(c3ccccc3c1)OCCCc1c(C(=O)O)n(C)c3c-2c(Cl)ccc13 [AZD5991] + Cc1cc2ncnn2cc1Nc1ncc2c(n1)n(C1CCOCC1)c(=O)n2C [AZD7648] (first compound max 1 µM, 7x7, partner max 10 µM) | -0.0622 | 0.0486 | 0.0011 | -0.018 | -0.0466 | -0.0152 | 0.0111 | -0.069 | -0.0394 | -0.0332 |  | -0.025 | -0.0392 | -0.0093 | -0.0136 | -0.0282 | -0.0418 | -0.0158 | -0.0157 | 0.0071

Reference: the supplement of paper PMC11061612
